# Measured values taken from US20110105555A1, “SUBSTITUTED N-IMIDAZO[2,1-B]THIAZOLE-5-SULFONAMIDE DERIVATIVES AS 5-HT6 LIGANDS” (priority 2008, published 2011).
# Structures can show the parent of a compound that is named as a salt.
# System: not given
# Test: not given
# Conditions: in vivo; cited from earlier work
Compound,body weight,food intake
"CN(C)CCc1c[nH]c2ccc(NS(=O)(=O)c3ccc4c(Cl)cccc4c3)cc12 [Compound E-6837, 5-chloro-N-[3-(2-(dimethylamino)ethyl)-1H-indol-5-yl]naphthalene-2-sulphonamide]",significant body weight loss,reduction in the food intake

# Target: T1, 5HT6-human recombinant receptor (Homo sapiens, UniProt P50406)
# T1 sequence (P50406 whole entry): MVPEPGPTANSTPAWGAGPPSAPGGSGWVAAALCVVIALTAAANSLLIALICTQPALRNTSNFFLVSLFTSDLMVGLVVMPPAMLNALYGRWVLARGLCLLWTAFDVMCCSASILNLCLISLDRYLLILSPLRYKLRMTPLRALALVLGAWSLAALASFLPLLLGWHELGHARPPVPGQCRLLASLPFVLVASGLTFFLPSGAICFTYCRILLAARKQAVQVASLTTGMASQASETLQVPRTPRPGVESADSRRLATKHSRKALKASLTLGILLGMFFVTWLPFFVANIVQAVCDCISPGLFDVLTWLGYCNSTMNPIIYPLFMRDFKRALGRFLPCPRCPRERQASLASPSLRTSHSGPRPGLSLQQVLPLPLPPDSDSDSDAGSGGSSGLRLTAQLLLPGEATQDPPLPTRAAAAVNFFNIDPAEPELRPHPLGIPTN
# Test: Binding to serotonin receptor 5-HT6 ([3H]-LSD radioligand, HEK-293 cell membranes)
# Design: purchased Receptor Biology; host or cells: HEK-293 cells (membranes)
# Conditions: [3H]-LSD 2.7 nM, 60 minutes at 37° C., tests in triplicate
# Procedure: Binding to Serotonin Receptor 5ht6
# Cell membranes of HEK-293 cells expressing the 5HT6-human recombinant receptor were supplied by Receptor Biology. In said membranes the receptor concentration is 2.18 pmol/mg protein and the protein concentration is 9.17 mg/ml. The experimental protocol follows the method of B. L. Roth et al. [B. L. Roth et al., The Journal of Pharmacology and Experimental Therapeutics, 1994, 268, 1403] with the following slight changes. The respective part of the literature description is hereby incorporated by reference and forms part of the disclosure.
# The commercial membrane is diluted (1:40 dilution) with the binding buffer: 50 mM Tris-HCl, 10 mM MgCl2, 0.5 mM EDTA (pH 7.4). The radioligand used is [^3H]-LSD at a concentration of 2.7 nM with a final volume of 200 μl. incubation is initiated by adding 100 μl of membrane suspension, (≈22.9 μg membrane protein), and is prolonged for 60 minutes at a temperature of 37° C. The incubation is ended by fast filtration in a Brandel Cell Harvester through fiber glass filters made by Schleicher & Schnell GF 3362 pretreated with a solution of polyethylenimine at 0.5%. The filters are washed three times with three milliliters of buffer Tris-HCl 50 mM pH 7.4. The filters are transferred to flasks and 5 ml of Ecoscint H liquid scintillation cocktail are added to each flask. The flasks are allowed to reach equilibrium for several hours before counting with a Wallac Winspectral 1414 scintillation counter. Non-specific binding is determined in the presence of 100 μM of serotonin, Tests were made in triplicate. The inhibition constants (Ki, nM) were calculated by non-linear regression analysis using the program EBDA/LIGAND described in Munson and Rodbard, Analytical Biochemistry, 1980, 107, 220, which is hereby incorporated by reference and forms part of the disclosure.
row,Compound,Ki [µM]
1,"CCN(CC)c1ccc(NS(=O)(=O)c2c(Cl)nc3sccn23)cc1 [Compound 32, 6-Chloro-imidazo[2,1-b]thiazole-5-sulfonic acid (4-diethylamino-phenyl)-amide hydrochloride]",0.0054
2,"O=S(=O)(Nc1ccc2ncsc2c1)c1c(Cl)nc2sccn12 [Compound 3, 6-Chloro-imidazo[2,1-b] thiazole-5-sulfonic acid benzothiazol-6-ylamide]",0.0127
3,"O=S(=O)(Nc1ccc2c(c1)COC2)c1c(Cl)nc2sccn12 [Compound 31, 6-Chloro-imidazo[2,1-b]thiazole-5-sulfonic acid (1,3-dihydro-isobenzo furan-5-yl)-amide]",0.068
4,"CC(=O)N1CCc2cc(NS(=O)(=O)c3c(Cl)nc4sccn34)ccc21 [Compound 19, 6-Chloro-imidazo[2,1-b]thiazole-5-sulfonic acid (1-acetyl-2,3-dihydro-1H-indol-5-yl)-amide]",0.0016
5,"O=S(=O)(Nc1ccc2[nH]ncc2c1)c1c(Cl)nc2sccn12 [Compound 25, 6-Chloro-imidazo[2,1-b]thiazole-5-sulfonic acid (1H-indazol-5-yl)-amide hydrochloride]",0.0057
6,"O=C1CCc2ccc(NS(=O)(=O)c3c(Br)nc4sccn34)cc21 [Compound 41, 6-Bromo-imidazo[2,1-b]thiazole-5-sulfonic acid (3-oxo-indan-5-yl)-amide hydrochloride]",0.0049
7,"CC(=O)N1CCc2ccc(NS(=O)(=O)c3c(Br)nc4sccn34)cc21 [Compound 38, 6-Bromo-imidazo[2,1-b]thiazole-5-sulfonic acid (1-acetyl-2,3-dihydro-1H-indol-6-yl)-amide]",0.0372
8,"CC(=O)N1CCc2cc(NS(=O)(=O)c3c(Br)nc4sccn34)ccc21 [Compound 37, 6-Bromo-imidazo[2,1-b]thiazole-5-sulfonic acid (1-acetyl-2,3-dihydro-1H-indol-5-yl)-amide]",0.0013
9,"CC(C)(C)OC(=O)n1ncc2cc(NS(=O)(=O)c3c(Br)nc4sccn34)ccc21 [Compound 60, 5-(6-Bromo-imidazo[2,1-b]thiazole-5-sulfonylamino)-indazole-1-carboxylic acid tert-butyl ester]",0.0066
10,"CC(=O)N1CCc2ccc(NS(=O)(=O)c3c(Cl)nc4sccn34)cc21 [Compound 20, 6-Chloro-imidazo[2,1-b]thiazole-5-sulfonic acid (1-acetyl-2,3-dihydro-1H-indol-6-yl)-amide]",0.0128
11,"O=C1CCc2ccc(NS(=O)(=O)c3c(Cl)nc4sccn34)cc21 [Compound 28, 6-Chloro-imidazo[2,1-b]thiazole-5-sulfonic acid (3-oxo-indan-5-yl)-amide]",0.0071
12,"O=S(=O)(Nc1ccc2c(c1)CCCC2)c1c(Cl)nc2sccn12 [Compound 30, 6-Chloro-imidazo[2,1-b]thiazole-5-sulfonic acid (5,6,7,8-tetrahydro-naphthalen-2-yl)-amide]",0.019
13,"O=S(=O)(Nc1ccc2[nH]ccc2c1)c1c(Br)nc2sccn12 [Compound 36, 6-Bromo-imidazo[2,1-b]thiazole-5-sulfonic acid (1H-indol-5-yl)-amide]",0.01
14,"Cc1nc2cc(NS(=O)(=O)c3c(Cl)nc4sccn34)ccc2s1 [Compound 4, 6-Chloro-imidazo[2,1-b] thiazole-5-sulfonic acid (2-methyl-benzothiazol-5-yl)-amide]",0.0145
15,"CN(C)c1ccc(NS(=O)(=O)c2c(Cl)nc3sccn23)cc1 [Compound 16, 6-Chloro-imidazo[2,1-b] thiazole-5-sulfonic acid (4-dimethylamino-phenyl)-amide]",0.0087
16,"O=S(=O)(Nc1ccc2c(c1)CCN2)c1c(Cl)nc2sccn12 [Compound 23, 6-Chloro-imidazo[2,1-b]thiazole-5-sulfonic acid (2,3-dihydro-1H-indol-5-yl)-amide hydrochloride]",0.02
17,"Cn1ccc2cc(NS(=O)(=O)c3c(Cl)nc4sccn34)ccc21 [Compound 15, 6-Chloro-imidazo[2,1-b] thiazole-5-sulfonic acid (1methyl-1H-indol-5-yl)-amide]",0.023
18,"O=S(=O)(Nc1ccc2c(c1)CCC2)c1c(Cl)nc2sccn12 [Compound 1, 6-Chloro-imidazo[2,1-b] thiazole-5-sulfonic acid indan-5-ylamide]",0.0111
19,"O=S(=O)(Nc1ccc2c(c1)NCC2)c1c(Cl)nc2sccn12 [Compound 34, 6-Chloro-imidazo[2,1-b]thiazole-5-sulfonic acid (2,3-dihydro-1H-indol-6-yl)-amide]",0.0074

# Target: T1, 5HT6-human recombinant receptor
# Test: not given
# Conditions: cited from earlier work
row,Compound,binding for the recombinant human 5-HT6 receptor
1,"CN(C)CCc1c[nH]c2ccc(NS(=O)(=O)c3ccc4c(Cl)cccc4c3)cc12 [Compound E-6837, 5-chloro-N-[3-(2-(dimethylamino)ethyl)-1H-indol-5-yl]naphthalene-2-sulphonamide]",selective and high affinity binding
